Like-named read-outs stand apart in the source and are kept apart here.
Tests used:
[1] = target: human α7 AChR (Homo sapiens, UniProt P36544); assay type: binding
[2] = test system: mutant α7 AChRs; assay type: binding, human
[3] = test system: α7 AChRs; settings: cited from earlier work
[4] = test system: muscle AChRs; settings: cited from earlier work
[5] = test system: α7–AChBP chimera; test: Radiolabeled ligand binding to the α7–AChBP chimera; design: species or system human / Lymnaea stagnalis
[6] = target: mutant α7 AChRs (Homo sapiens, UniProt P36544, W77F); assay type: binding
Chain of mutant α7 AChRs (Homo sapiens, UniProt P36544, W77F) (P36544 23-502 W77F): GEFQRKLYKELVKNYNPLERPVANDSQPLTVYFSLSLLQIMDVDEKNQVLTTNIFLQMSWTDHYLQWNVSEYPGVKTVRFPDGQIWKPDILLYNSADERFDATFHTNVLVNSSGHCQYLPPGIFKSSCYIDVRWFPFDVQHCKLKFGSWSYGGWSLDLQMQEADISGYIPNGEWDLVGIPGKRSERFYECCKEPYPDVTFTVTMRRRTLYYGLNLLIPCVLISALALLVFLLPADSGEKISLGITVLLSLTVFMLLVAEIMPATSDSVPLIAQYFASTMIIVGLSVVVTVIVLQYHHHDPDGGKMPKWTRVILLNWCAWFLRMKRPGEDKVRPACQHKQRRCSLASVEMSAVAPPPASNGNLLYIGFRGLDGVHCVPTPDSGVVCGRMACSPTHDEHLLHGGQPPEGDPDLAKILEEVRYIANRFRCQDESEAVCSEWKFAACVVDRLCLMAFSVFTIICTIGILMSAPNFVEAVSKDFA

Chain of human α7 AChR (P36544 23-502): as the sequence (P36544 23-502 W77F) above, with F55W counted along it

Compound: CC(=O)OCC[N+](C)(C)C [ACh, acetylcholine]
- cooperativity of ACh binding ([1]; steady-state binding): highly cooperative
- change of agonist affinity for the α7 AChR ([2]; substitutions at Arg182, Glu185, Glu181 (loop C) and Gln37, steady-state binding): increased affinity

Compound: C[N+](C)(C)CCO [choline]
- efficacy at α7 AChRs [3]: high efficacy
- efficacy at muscle AChRs [4]: low efficacy

Compound: Clc1ccc(C2CC3CCC2N3)cn1 (stereo not shown) [epibatidine]
- binding of radiolabeled ligand to the α7–AChBP chimera ([5]; radiolabeled ligand, Supplementary Fig. 2): bound
- epibatidine binding to the α7 AChR [1]: cooperatively and with high affinity
- cooperativity of epibatidine binding [6]: markedly reduced cooperativity
- cooperativity of epibatidine binding [2]: maintained cooperativity
- increase of the apparent dissociation constant by phenylalanine substitutions [2]: 4- to 2,200 fold

Compound: α-bungarotoxin
- binding of radiolabeled ligand to the α7–AChBP chimera [5]: bound

— article PMC3489043 (Nature neuroscience, 2011)
